From article PMC10788925 (Journal of Medicinal Chemistry, 2023)
Like-named read-outs stand apart in the source and are kept apart here.

Legend:
SARS-CoV-2 = assay: microbe, parasite or virus in culture; format: cell-based
in vitro [1] = settings: human
in vitro [2] = assay: in vitro
Vero E6 cells = settings: African green monkey (Chlorocebus sp.)
Huh-7 cells = settings: human
in vitro [3] = settings: human; remark: listed apart in the source
HEV-3 replicon p6-Gluc = assay: microbe, parasite or virus in culture; format: cell-based, Hepatitis E virus; settings: for EC50 / EC90: Hepatitis E virus
CHIKV LR2006-OPY1 = assay: microbe, parasite or virus in culture; format: cell-based; settings: Chikungunya virus
RVFV strain MP-12 = assay: microbe, parasite or virus in culture; format: cell-based; settings: Rift Valley fever virus
[4] = Severe acute respiratory syndrome coronavirus 2, Vero C1008, 24 h
[5] = Severe acute respiratory syndrome coronavirus 2, Vero C1008, 48 h
[6] = African green monkey (Chlorocebus sp.)
[7] = HepG2, 24 h, read-out: HEV, EC90 (24 h, nM)
[8] = HepG2, 48 h, read-out: HEV, EC90 (48 h, nM)2

| Compound | EC50 (SARS-CoV-2; [4]) | EC90 (SARS-CoV-2; [4]) | EC50 (SARS-CoV-2; [5]) | EC90 (SARS-CoV-2; [5]) | CC50 at 24 h (in vitro [1]) | CC50 at 48 h (in vitro [1]) | CC50 (in vitro [2]; [6]) | CC50 (in vitro [2]; chlorocebus sabaeus, CC50) | CC50 (Huh-7 cells) | CC50 (in vitro [3]) | EC50 (HEV-3 replicon p6-Gluc; HepG2, 24 h) | EC90 (HEV-3 replicon p6-Gluc; HepG2, 24 h) | EC50 (HEV-3 replicon p6-Gluc; HepG2, 48 h) | EC90 (HEV-3 replicon p6-Gluc; HepG2, 48 h) | EC50 (CHIKV LR2006-OPY1; Huh-7, 24 h) | EC90 (CHIKV LR2006-OPY1; Huh-7, 24 h) | EC50 (CHIKV LR2006-OPY1; Huh-7, 48 h) | EC90 (CHIKV LR2006-OPY1; Huh-7, 48 h) | EC50 (RVFV strain MP-12; Vero C1008, 24 h) | EC90 (RVFV strain MP-12; Vero C1008, 24 h) | also measured |
| --- | --- | --- | --- | --- | --- | --- | --- | --- | --- | --- | --- | --- | --- | --- | --- | --- | --- | --- | --- | --- | --- |
| COC(=O)[C@H]1[C@@H](O)[C@@]2(O)c3c(OC)cc(Br)cc3O[C@@]2(c2ccc(OC)cc2)[C@@H]1c1ccccc1 (racemic) [9m, (±)-Methyl (1R,2R,3S,3aR,8bS)-6-bromo-1,8b-dihydroxy-8-methoxy-3a-(4-methoxyphenyl)-3-phenyl-2,3,3a,8b-tetrahydro-1H-cyclopenta[b]benzofuran-2-carboxylate] | 33.9 nM | 40.4 nM | 47.8 nM | 80 nM | 421 nM | 13.8 nM | > 1000 nM | > 1000 nM | > 1000 nM | > 1000 nM | 3.1 nM | 40.7 nM | 1.4 nM | 30.6 nM | 2.1 nM | 12.3 nM | 2.9 nM | 9.8 nM | 26.6 nM | 39.4 nM | CC50 (Vero E6 cells): > 1000 nM; antiviral response at higher cell density (HEV-3 replicon p6-Gluc): decreased; EC50 (RVFV strain MP-12; Vero C1008, 48 h): 43.3 nM; EC90 (RVFV strain MP-12; Vero C1008, 48 h): 53.2 nM; cell viability at higher cell density (HepG2 cells): improved |
| COC(=O)[C@H]1[C@@H](O)[C@@]2(O)c3c(F)cc(F)cc3O[C@@]2(c2ccc(OC)cc2)[C@@H]1c1ccccc1 (racemic) [9c, (±)-Methyl (1R,2R,3S,3aR,8bS)-6,8-difluoro-1,8b-dihydroxy-3a-(4-methoxyphenyl)-3-phenyl-2,3,3a,8b-tetrahydro-1H-cyclopenta[b]benzofuran-2-carboxylate] |  |  |  |  |  |  |  |  |  |  | > 1000 nM | > 1000 nM | > 1000 nM | > 1000 nM |  |  |  |  |  |  | CC50 (in vitro [1]): > 1000 nM; EC50 (HEV-3 replicon p6-Gluc; HepG2, 24 h, read-out: HEV, EC50 (24 h, nM)): > 1000 nM; EC90 (HEV-3 replicon p6-Gluc; [7]): > 1000 nM; EC50 (HEV-3 replicon p6-Gluc; HepG2, 48 h, read-out: HEV, EC50 (48 h, nM)): > 1000 nM; EC90 (HEV-3 replicon p6-Gluc; [8]): > 1000 nM; CC50 (HepG2 cells; read-out: HEP2G, CC50 (24 h), 24 h): > 1000 nM; CC50 (HepG2 cells; read-out: HEP2G, CC50 (48 h), 48 h): > 1000 nM |
| COC(=O)[C@H]1[C@@H](O)[C@@]2(O)c3c(Cl)cc(Cl)cc3O[C@@]2(c2ccc(OC)cc2)[C@@H]1c1ccccc1 (racemic) [9da, (±)-Methyl (1R,2R,3S,3aR,8bS)-6,8-dichloro-1,8b-dihydroxy-3a-(4-methoxyphenyl)-3-phenyl-2,3,3a,8b-tetrahydro-1H-cyclopenta[b]benzofuran-2-carboxylate] | 111 nM | 387 nM | 176 nM | 558 nM | 798 nM | 149 nM | > 1000 nM | > 1000 nM | > 1000 nM | > 1000 nM | 25.4 nM | 642 nM | 17.5 nM | 725 nM | 18.1 nM | 83.4 nM | 22.4 nM | 92.3 nM | 102 nM | 227 nM | CC50 (Vero E6 cells): > 1000 nM; EC50 (RVFV strain MP-12; Vero C1008, 48 h): 143 nM; EC90 (RVFV strain MP-12; Vero C1008, 48 h): 217 nM |
| CONC(=O)[C@H]1[C@@H](O)[C@@]2(O)c3c(Cl)cc(Br)cc3O[C@@]2(c2ccc(OC)cc2)[C@@H]1c1ccccc1 (racemic) [14f, (±)-(1R,2R,3S,3aR,8bS)-6-Bromo-8-chloro-1,8b-dihydroxy-N-methoxy-3a-(4-methoxyphenyl)-3-phenyl-2,3,3a,8b-tetrahydro-1H-cyclopenta[b]benzofuran-2-carboxamide] | 51.4 nM | 920 nM | 190 nM | 340 nM | 407 nM | 15.6 nM | > 1000 nM | > 1000 nM | > 1000 nM | > 1000 nM | 4.6 nM | 53.4 nM | 2.6 nM | 30.2 nM | 3.1 nM | 19 nM | 3.4 nM | 20.2 nM | 42.1 nM | 92.5 nM | EC50 (RVFV strain MP-12; Vero C1008, 48 h): 106 nM; EC90 (RVFV strain MP-12; Vero C1008, 48 h): 113 nM |
| COC(=O)[C@H]1[C@@H](O)[C@@]2(O)c3c(Br)cc(OC)cc3O[C@@]2(c2ccc(OC)cc2)[C@@H]1c1ccccc1 (racemic) [9l, (±)-Methyl (1R,2R,3S,3aR,8bS)-8-bromo-1,8b-dihydroxy-6-methoxy-3a-(4-methoxyphenyl)-3-phenyl-2,3,3a,8b-tetrahydro-1H-cyclopenta[b]benzofuran-2-carboxylate] |  |  |  |  | 787 nM | 114 nM |  |  |  |  | 83.6 nM | 343 nM | 44.7 nM | 305 nM |  |  |  |  |  |  |  |
| COC(=O)[C@H]1[C@@H](O)[C@@]2(O)c3c(Br)cc(Cl)cc3O[C@@]2(c2ccc(OC)cc2)[C@@H]1c1ccccc1 (racemic) [9g, (±)-Methyl (1R,2R,3S,3aR,8bS)-8-bromo-6-chloro-1,8b-dihydroxy-3a-(4-methoxyphenyl)-3-phenyl-2,3,3a,8b-tetrahydro-1H-cyclopenta[b]benzofuran-2-carboxylate] |  |  |  |  | 812 nM | 101 nM |  |  |  |  | 52.1 nM | 482 nM | 37.9 nM | 365 nM |  |  |  |  |  |  |  |
| COC(=O)[C@H]1[C@@H](O)[C@@]2(O)c3c(OC)cc(OC)cc3O[C@@]2(c2ccc(OC)cc2)[C@@H]1c1ccccc1 (racemic) [(±)-methyl rocaglate (11bc), (±)-Methyl (1R,2R,3S,3aR,8bS)-1,8b-dihydroxy-6,8-dimethoxy-3a-(4-methoxyphenyl)-3-phenyl-2,3,3a,8b-tetrahydro-1H-cyclopenta[b]benzofuran-2-carboxylate, reference compound] |  |  |  |  | 690 nM | 65.3 nM |  |  |  |  | 28.4 nM | 631 nM | 29.9 nM | 188 nM |  |  |  |  |  |  |  |
| CONC(=O)[C@H]1[C@@H](O)[C@@]2(O)c3c(Cl)cc(Cl)cc3O[C@@]2(c2ccc(OC)cc2)[C@@H]1c1ccccc1 (racemic) [14da, (±)-(1R,2R,3S,3aR,8bS)-6,8-Dichloro-1,8b-dihydroxy-N-methoxy-3a-(4-methoxyphenyl)-3-phenyl-2,3,3a,8b-tetrahydro-1H-cyclopenta[b]benzofuran-2-carboxamide] |  |  |  |  | 511 nM | 31.8 nM |  |  |  |  | 8.6 nM | 172 nM | 9.8 nM | 134 nM |  |  |  |  |  |  |  |
| COC(=O)[C@H]1[C@@H](O)[C@@]2(O)c3c(OC)cc(F)cc3O[C@@]2(c2ccc(OC)cc2)[C@@H]1c1ccccc1 (racemic) [9i, (±)-Methyl (1R,2R,3S,3aR,8bS)-6-fluoro-1,8b-dihydroxy-8-methoxy-3a-(4-methoxyphenyl)-3-phenyl-2,3,3a,8b-tetrahydro-1H-cyclopenta[b]benzofuran-2-carboxylate] |  |  |  |  |  | 904 nM |  |  |  |  | > 1000 nM | > 1000 nM | 732 nM | > 1000 nM |  |  |  |  |  |  | CC50 (in vitro [1]): > 1000 nM; EC90 (HEV-3 replicon p6-Gluc; [7]): > 1000 nM; EC90 (HEV-3 replicon p6-Gluc; [8]): > 1000 nM |
| COC(=O)[C@H]1[C@@H](O)[C@@]2(O)c3c(Cl)cc(OC)cc3O[C@@]2(c2ccc(OC)cc2)[C@@H]1c1ccccc1 (racemic) [9j, (±)-Methyl (1R,2R,3S,3aR,8bS)-8-chloro-1,8b-dihydroxy-6-methoxy-3a-(4-methoxyphenyl)-3-phenyl-2,3,3a,8b-tetrahydro-1H-cyclopenta[b]benzofuran-2-carboxylate] |  |  |  |  | 832 nM | 148 nM |  |  |  |  | 92.6 nM | 577 nM | 75.7 nM | 394 nM |  |  |  |  |  |  |  |
